From PubChem BioAssay AID179 (DTP/NCI, 2004)
Active and inactive are the calls of the source.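 Rule for the calls: active = compounds giving half or more protection of infected cells from virus-caused growth loss, again on retest; inactive = the rest.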

Test system: CEM cells HIV-1 protection, formazan growth assay
Assay: NCI AIDS Antiviral Assay
Conditions: for IC50: measured here: growth of uninfected CEM cells
Summary of the method: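 Protection of CEM cells against HIV-1 was scored from cell growth (soluble formazan) across five concentrations, with parallel uninfected cells. Lack of protection may reflect toxicity.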

In the case of `COc1ccc(N=Nc2c(N)nn3cc4c(nc23)-c2ccccc2CC4)cc1`, the EC50 is reported as over 200 µM and the IC50 is reported as 2.57 µM.
`COc1ccc(C(=O)C(C(=O)CCC(=O)Nc2cccc(C(F)(F)F)c2)c2ccccc2)cc1` (stereo not drawn) gave an EC50 of over 11.2 µM and an IC50 of over 11.2 µM.
For `Cn1c(=O)c(C(c2ccc([N+](=O)[O-])cc2)c2c(O)c3ccccc3n(C)c2=O)cc2ccccc21` (stereo not drawn), the EC50 was over 4.27 µM and the IC50 was over 4.27 µM.
Work on `O=C1N=C(C=c2ccc(=Cc3[nH]c(=O)n(CN4CCCCC4)c3O)cc2)C(=O)N1CN1CCCCC1` yielded an EC50 of over 100 µM and an IC50 of 22.4 µM.
Compound `C#CCCOC(=O)c1ccccc1OC(C)=O` has an EC50 of over 200 µM and an IC50 of over 200 µM.
In the case of `CC(=O)N(C(=O)CC(=O)N/N=C\c1ccc(Br)c(N(CCC#N)CCC#N)c1)c1ccc(Cl)cc1`, the EC50 is reported as over 200 µM and the IC50 is reported as over 200 µM.
Work on `CC(=O)NNc1nc(C)c(C(=O)NNC(=O)C(=O)Nc2ccccc2C#N)s1` yielded an EC50 of over 89.1 µM and an IC50 of 51.3 µM.
In the case of `NC(=O)N/N=C1/CC2CCCCC2c2ccccc21` (stereo not drawn), the EC50 is reported as over 200 µM and the IC50 is reported as 34.7 µM.
For `COC1OC(COC(=O)c2ccccc2)CC1F` (stereo not drawn), the EC50 was over 195 µM and the IC50 was 21.4 µM.
Compound `CN(C)CCNc1ncnc2nc(-c3ccccc3)c(-c3ccccc3)nc12` has an EC50 of over 200 µM and an IC50 of 112 µM.
Compound `CCC1SC(C)C(=O)NC1=O` (stereo not drawn) has an EC50 of over 661 µM and an IC50 of over 661 µM.
Work on `O=[N+]([O-])c1ccc2[nH]nc(OCc3ccccc3Cl)c2c1` yielded an EC50 of over 129 µM and an IC50 of over 129 µM.
`Cc1cc(=O)oc2ccccc12` was tested, and the EC50 was over 813 µM and the IC50 was over 813 µM.
`CN1C(=O)C2CCCN2C(=O)C1(C)NC(=O)OCc1ccccc1` (stereo not drawn) was tested, and the EC50 was over 269 µM and the IC50 was over 269 µM.
Compound `O=C(O)CCCCCCCCCCC(=O)O` has an EC50 of over 148 µM and an IC50 of over 148 µM.
In the case of `CC(C)(C)OC(=O)Nc1nnc(S(N)(=O)=O)s1`, the EC50 is reported as 182 µM and the IC50 is reported as over 200 µM.
In the case of `COC(=O)c1cc2cccc(CS(=O)(=O)O)c2cc1O`, the EC50 is reported as over 200 µM and the IC50 is reported as 21.4 µM.
`C[n+]1c(-c2ccc(/C=N/NC(=O)c3ccc(C(=O)N/N=C/c4ccc(-c5cn6ccccc6[n+]5C)cc4)cc3)cc2)cn2ccccc21` showed an EC50 of over 3.89 µM and an IC50 of 0.0224 µM.
In the case of `Cc1cc(Cl)c(O)c(C(=O)C(=O)C(O)c2ccc3c(c2)OCO3)c1` (stereo not drawn), the EC50 is reported as over 200 µM and the IC50 is reported as 2.45 µM.
For `NC1=NC(c2ccccc2)CC(c2cc(Cl)ccc2O)=N1` (stereo not drawn), the EC50 was over 200 µM and the IC50 was 12.6 µM.
For `O=C1c2ccccc2C(=O)c2c1cccc2-n1nnc2cc(Cl)c(Cl)cc21`, the outcome was “inactive”.
In the case of `O=C(O)c1cc2c(cc1C(=O)O)C(=O)C(c1ccccc1)C2=O`, the EC50 is reported as over 200 µM and the IC50 is reported as over 200 µM.
In the case of `CCCS(=O)OC1C(C2COC(C)(C)O2)OC2OC(C)(C)OC21` (stereo not drawn), the EC50 is reported as over 200 µM and the IC50 is reported as 95.5 µM.
`CC1=C(C(=O)NC(C)(C)C)CC(C(=O)NC(C)(C)C)C(C)N1` (stereo not drawn) showed an EC50 of over 200 µM and an IC50 of over 200 µM.
`COc1ccc(CCC2NCCc3cc(OC)c(OC)cc32)cc1` (stereo not drawn) gave an EC50 of over 692 µM and an IC50 of 102 µM.
`COc1ccc(-c2nnc3c4ccccc4sn23)cc1` showed an EC50 of over 25.7 µM and an IC50 of 22.4 µM.
`CNC(=O)N(Cc1ccccc1)C[C@@H]1CCCN1C(C)=O` gave an EC50 of over 200 µM and an IC50 of over 200 µM.
`Cc1cn([C@@H]2C[C@](C)(CO)N(C)O2)c(=O)[nH]c1=O` was tested, and the EC50 was over 200 µM and the IC50 was over 200 µM.
`CCOc1ncn(-c2ccc(NC(=S)Nc3ncccn3)cc2)n1` was tested, and the EC50 was over 200 µM and the IC50 was 95.5 µM.
`Cc1ccc(S(=O)(=O)N/N=C/CN2C(=O)c3ccccc3C2=O)cc1` showed an EC50 of 182 µM and an IC50 of 191 µM.
Work on `OCCN(CCO)c1nc(N(CCO)CCO)nc(N(CCO)CCO)n1` yielded an EC50 of over 200 µM and an IC50 of over 200 µM.
`O=c1c(-c2ccccc2)coc2cc(O)ccc12` gave an EC50 of over 200 µM and an IC50 of 52.5 µM.
`C1#CCCCCCCC#CCCCCC1.[C-]#[O+].[C-]#[O+].[C-]#[O+].[C-]#[O+].[C-]#[O+].[C-]#[O+].[C-]#[O+].[C-]#[O+].[C-]#[O+].[C-]#[O+].[C-]#[O+].[C-]#[O+].[Co].[Co].[Co].[Co]` gave an EC50 of over 2.57 µM and an IC50 of over 2.57 µM.
Compound `COC(=O)C1=C(C(=O)OC)C(OO)(c2ccccc2)OC1=O` (stereo not drawn) has an EC50 of over 200 µM and an IC50 of over 200 µM.
With `N#CC(NCCc1ccccc1)c1ccc(OCCCCCCCCCCOc2ccc(C(C#N)NCCc3ccccc3)cc2)cc1` (stereo not drawn) the EC50 was over 50.1 µM and the IC50 was 22.9 µM.
`Cc1ccccc1C(C#N)C(=O)C(=O)Nc1cccc(Cl)c1` (stereo not drawn) gave an EC50 of over 417 µM and an IC50 of over 417 µM.
`c1ccc(C2CN3CCSC3=N2)cc1` (stereo not drawn) showed an EC50 of over 200 µM and an IC50 of over 200 µM.
`COc1cc2c(cc1OC)C(OC)N(C)c1c-2ccc2cc3c(cc12)OCO3` (stereo not drawn) was tested, and the EC50 was over 20 µM and the IC50 was 0.309 µM.
`CCc1nc(N)c2nc(-c3ccc(C#N)cc3)oc2n1` was tested, and the EC50 was over 100 µM and the IC50 was over 100 µM.
`Nc1ncnc2nc(C(O)C(O)C(O)CO)[nH]c12` (stereo not drawn) showed an EC50 of over 102 µM and an IC50 of over 102 µM.
Compound `CC(C)(O)/C1=C/C=C/CCCCCCCCCC1` has an EC50 of over 200 µM and an IC50 of 34.7 µM.
In the case of `Cc1nc2n[nH]c(N)c2nc1C`, the EC50 is reported as over 83.2 µM and the IC50 is reported as over 83.2 µM.
